Test results as given in patent US20260355097A1, “MICROBIOME FRIENDLY SUBSTANCES AND MICROBIOME FRIENDLY COSMETIC FORMULATIONS” (BASF SE, priority 2023, published 2026).
Counter-ions that a name gives are not always drawn.

Tested on: Staphylococcus aureus, Staphylococcus epidermidis, Malassezia furfur
Assay: Lowest MIC over the microorganisms tested
Format: cell-based
Conditions: lowest MIC value obtained over the tested microorganisms
Procedure: Minimal Inhibitory Concentration tests are tests typically used to measure growth inhibition by a substance. MICs are defined as the lowest test concentrations of the test substance at which growth of specific microorganisms are inhibited.
In the present case predefined dilutions of the test substance in the appropriate culture medium were prepared and inoculated with the microorganism of interest. After incubation, the test organisms were cultured over a time-period and under conditions normally allowing growth of the microorganism. Vehicle controls (vehicle=solvent used, e. g. water) were also assessed to determine growth without the test substance. The organisms of interest tested were the representative strains S. aureus (found on the skin, often a pathogen), S. epidermidis and Malassezia furfur. The higher the MIC value, the less inhibition of growth is observed. In the following results the test concentrations are given as percent of active substance content.
For each substance the lowest MIC value obtained determines whether this substance in useful as microbiome friendly cosmetic ingredient. A substance is useful as microbiome friendly cosmetic ingredient, if this lowest MIC is not lower than a threshold value. This threshold value depends on the type of the substance (solubilizer, emulsifier etc.) and is related to the amount in which these types of substances are generally used in common cosmetic formulations.

OCCCCO [1.4 Butandiol, 1,4 Butandiol]
lowest MIC: >1 % by weight

CC(O)CCO (stereo not drawn) [Butylene Glycol, 1,3-Butanediol]
lowest MIC: 20.00 % by weight

OCC(O)CO [Glycerin]
lowest MIC: 20.00 % by weight

CCCCCCCC/C=C\CCCCCCCC(=O)OCC(O)CO (stereo not drawn) [Glyceryl Oleate]
lowest MIC: >2 % by weight

CCCCCCCCCCCCCCCCCC(=O)OCC(O)CO.O=C(O)CC(O)(CC(=O)O)C(=O)O (stereo not drawn) [Glyceryl Stearate Citrate]
lowest MIC: >3 % by weight

CCCCCCCCCCCCCCCCOP(=O)([O-])[O-].[K+].[K+] [Potassium Cetyl Phosphate]
lowest MIC: 1.00 % by weight

O=C(O)c1ccccc1 [Sodium Benzoate]
lowest MIC: 0.25 % by weight

CCOC(=O)CC(O)(CC(=O)OCC)C(=O)OCC [Triethyl Citrate]
lowest MIC: 1 % by weight

CCCCC/C=C\C/C=C\CCCCCCCC(=O)OCC [ethyl linoleate]
lowest MIC: >1 % by weight

Conjugated Linoleic Acid
lowest MIC: >1 % by weight

Disodium Cetearyl Sulfosuccinate
lowest MIC: 0.05 % by weight

Sodium Cetearyl Sulfate
lowest MIC: 0.08 % by weight
